{"source": "paper PMC11220031", "about": "“Structural basis for the inhibition mechanism of LAT1-4F2hc complex by JPH203” (Cell Discovery, 2024)", "assay_in_all_cases": "microscale thermophoresis (MST)", "settings_in_all_cases": "read-out: binding affinity", "key": {"LAT2–4F2hc complex [1]": {"biological_target": "T1, LAT2–4F2hc complex (Homo sapiens, UniProt Q9UHI5, F250Y)", "T1 construct": "gene SLC7A8; LAT2–4F2hc heteromeric complex used for MST; construct, host and tags only in supplement; with Amino acid transporter heavy chain SLC3A2 (4F2 cell-surface antigen heavy chain)", "T1 sequence (Q9UHI5 1-535 F250Y)": "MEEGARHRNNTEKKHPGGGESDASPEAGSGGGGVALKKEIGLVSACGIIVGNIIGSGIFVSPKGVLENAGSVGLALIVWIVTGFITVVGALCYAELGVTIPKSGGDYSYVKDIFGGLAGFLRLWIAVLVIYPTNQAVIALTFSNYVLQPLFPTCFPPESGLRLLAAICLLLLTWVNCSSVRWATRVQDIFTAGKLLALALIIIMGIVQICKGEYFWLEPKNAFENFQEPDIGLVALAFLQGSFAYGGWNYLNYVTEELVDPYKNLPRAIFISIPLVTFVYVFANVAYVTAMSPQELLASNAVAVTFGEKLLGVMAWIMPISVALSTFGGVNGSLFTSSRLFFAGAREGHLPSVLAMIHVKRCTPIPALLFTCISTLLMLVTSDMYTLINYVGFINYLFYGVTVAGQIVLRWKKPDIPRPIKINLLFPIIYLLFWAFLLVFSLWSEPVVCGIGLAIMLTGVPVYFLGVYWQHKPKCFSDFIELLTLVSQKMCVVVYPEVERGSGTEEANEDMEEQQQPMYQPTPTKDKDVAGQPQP", "T1 sequence (P08195 2-529 partner)": "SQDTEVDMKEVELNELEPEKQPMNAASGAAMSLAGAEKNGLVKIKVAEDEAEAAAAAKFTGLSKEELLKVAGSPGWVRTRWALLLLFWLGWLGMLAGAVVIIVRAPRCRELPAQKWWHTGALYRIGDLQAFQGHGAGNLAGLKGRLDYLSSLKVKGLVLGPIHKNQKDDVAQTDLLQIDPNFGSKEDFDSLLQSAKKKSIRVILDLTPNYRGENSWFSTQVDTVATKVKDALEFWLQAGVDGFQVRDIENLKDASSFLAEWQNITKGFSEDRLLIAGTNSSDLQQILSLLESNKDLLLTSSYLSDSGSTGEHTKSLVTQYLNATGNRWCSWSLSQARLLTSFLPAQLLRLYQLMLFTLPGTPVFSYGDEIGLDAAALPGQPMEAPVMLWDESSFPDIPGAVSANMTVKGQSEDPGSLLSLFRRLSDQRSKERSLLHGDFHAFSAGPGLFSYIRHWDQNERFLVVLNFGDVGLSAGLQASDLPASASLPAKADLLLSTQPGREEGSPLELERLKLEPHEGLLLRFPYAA"}, "LAT2–4F2hc complex [2]": {"biological_target": "T2, LAT2–4F2hc complex (Homo sapiens, UniProt Q9UHI5, V391F)", "T2 construct": "gene SLC7A8; LAT2–4F2hc heteromeric complex used for MST; construct, host and tags only in supplement; with Amino acid transporter heavy chain SLC3A2 (4F2 cell-surface antigen heavy chain)", "T2 sequence (Q9UHI5 1-535 V391F)": "T1 sequence (Q9UHI5 1-535 F250Y) with Y250F, V391F", "T2 sequence (P08195 2-529 partner)": "T1 sequence (P08195 2-529 partner)"}, "LAT1–4F2hc complex [3]": {"biological_target": "T3, LAT1–4F2hc complex (Homo sapiens, UniProt Q01650, Y259F)", "T3 construct": "gene SLC7A5; full-length LAT1–4F2hc heteromeric complex, purified by size-exclusion chromatography; host and tags only in supplement; with Amino acid transporter heavy chain SLC3A2 (4F2 cell-surface antigen heavy chain)", "T3 sequence (Q01650 2-507 Y259F, one chain of several)": "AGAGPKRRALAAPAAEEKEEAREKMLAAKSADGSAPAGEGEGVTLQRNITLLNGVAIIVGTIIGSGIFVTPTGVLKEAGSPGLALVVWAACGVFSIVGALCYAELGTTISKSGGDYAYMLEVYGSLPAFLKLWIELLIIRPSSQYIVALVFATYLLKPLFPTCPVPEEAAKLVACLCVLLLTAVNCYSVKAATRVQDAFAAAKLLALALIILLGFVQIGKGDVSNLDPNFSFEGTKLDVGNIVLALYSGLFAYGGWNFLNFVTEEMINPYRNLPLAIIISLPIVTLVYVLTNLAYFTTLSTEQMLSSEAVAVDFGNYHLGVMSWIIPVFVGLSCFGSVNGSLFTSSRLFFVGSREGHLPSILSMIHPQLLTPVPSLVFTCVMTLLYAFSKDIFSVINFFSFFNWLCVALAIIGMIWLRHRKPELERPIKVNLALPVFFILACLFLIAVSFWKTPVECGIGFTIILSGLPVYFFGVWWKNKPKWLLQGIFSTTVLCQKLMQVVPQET"}, "LAT1–4F2hc complex [4]": {"biological_target": "T4, LAT1–4F2hc complex (Homo sapiens, UniProt Q01650, F400V)", "T4 construct": "gene SLC7A5; full-length LAT1–4F2hc heteromeric complex, purified by size-exclusion chromatography; host and tags only in supplement; with Amino acid transporter heavy chain SLC3A2 (4F2 cell-surface antigen heavy chain)", "T4 sequence (Q01650 2-507 F400V, one chain of several)": "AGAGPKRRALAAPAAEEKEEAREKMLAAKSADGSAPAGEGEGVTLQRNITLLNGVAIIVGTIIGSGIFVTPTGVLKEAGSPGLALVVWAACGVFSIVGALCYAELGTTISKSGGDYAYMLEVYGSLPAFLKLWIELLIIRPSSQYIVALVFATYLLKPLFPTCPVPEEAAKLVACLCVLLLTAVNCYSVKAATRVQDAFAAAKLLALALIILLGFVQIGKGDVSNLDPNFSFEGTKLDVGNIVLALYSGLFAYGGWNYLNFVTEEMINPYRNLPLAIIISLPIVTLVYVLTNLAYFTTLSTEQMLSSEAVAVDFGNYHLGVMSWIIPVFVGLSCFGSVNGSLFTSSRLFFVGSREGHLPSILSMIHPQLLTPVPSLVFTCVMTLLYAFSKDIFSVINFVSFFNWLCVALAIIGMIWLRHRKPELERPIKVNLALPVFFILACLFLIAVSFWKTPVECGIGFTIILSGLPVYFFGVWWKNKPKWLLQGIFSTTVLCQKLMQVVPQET"}, "LAT1–4F2hc complex [5]": {"biological_target": "T5, LAT1–4F2hc complex (Homo sapiens, UniProt Q01650)", "T5 construct": "gene SLC7A5; full-length LAT1–4F2hc heteromeric complex, purified by size-exclusion chromatography; host and tags only in supplement; with Amino acid transporter heavy chain SLC3A2 (4F2 cell-surface antigen heavy chain)", "T5 sequence (Q01650 2-507, one chain of several)": "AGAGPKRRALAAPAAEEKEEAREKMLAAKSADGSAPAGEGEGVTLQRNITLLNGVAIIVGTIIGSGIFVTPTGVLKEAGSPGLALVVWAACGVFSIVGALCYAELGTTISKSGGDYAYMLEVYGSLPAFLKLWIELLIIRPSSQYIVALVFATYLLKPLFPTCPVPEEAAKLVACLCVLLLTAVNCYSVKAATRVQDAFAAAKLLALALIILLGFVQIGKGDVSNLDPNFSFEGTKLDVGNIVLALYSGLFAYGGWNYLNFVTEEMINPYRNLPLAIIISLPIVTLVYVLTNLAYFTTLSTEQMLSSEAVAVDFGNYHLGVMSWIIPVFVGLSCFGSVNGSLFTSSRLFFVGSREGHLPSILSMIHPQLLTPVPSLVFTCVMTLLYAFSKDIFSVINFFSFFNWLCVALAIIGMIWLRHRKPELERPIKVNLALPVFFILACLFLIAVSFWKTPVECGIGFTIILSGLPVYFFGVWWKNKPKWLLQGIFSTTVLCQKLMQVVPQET"}, "LAT2–4F2hc complex [6]": {"biological_target": "T6, LAT2–4F2hc complex (Homo sapiens, UniProt Q9UHI5)", "T6 construct": "gene SLC7A8; LAT2–4F2hc heteromeric complex used for MST; construct, host and tags only in supplement; with Amino acid transporter heavy chain SLC3A2 (4F2 cell-surface antigen heavy chain)", "T6 sequence (Q9UHI5 1-535)": "T1 sequence (Q9UHI5 1-535 F250Y) with Y250F", "T6 sequence (P08195 2-529 partner)": "T1 sequence (P08195 2-529 partner)"}}, "note": "Residue numbers refer to the chain shown, from its start."}
{"compound": "Nc1cc(COc2c(Cl)cc(C[C@H](N)C(=O)O)cc2Cl)c2oc(-c3ccccc3)nc2c1", "note": "[JPH203]", "values": [{"measurement": "Kd", "setting": "LAT2–4F2hc complex [1]", "value": "2.55 ± 0.96", "unit": "µM"}, {"measurement": "Kd", "setting": "LAT2–4F2hc complex [2]", "value": "1.78 ± 0.65", "unit": "µM"}, {"measurement": "Kd", "setting": "LAT1–4F2hc complex [3]", "value": "3.81 ± 1.26", "unit": "µM"}, {"measurement": "Kd", "setting": "LAT1–4F2hc complex [4]", "value": "6.21 ± 1.58", "unit": "µM"}, {"measurement": "Kd", "setting": "LAT1–4F2hc complex [5]", "value": "1.48 ± 0.28", "unit": "µM"}, {"measurement": "Kd", "setting": "LAT2–4F2hc complex [6]", "value": "4.51 ± 1.35", "unit": "µM"}]}
